Measured values reported in paper PMC5421785, “Citrullination only infrequently impacts peptide binding to HLA class II MHC” (PLoS ONE, 2017).
Read-outs that look alike come from different tables or passages of the source. Square brackets hold non-standard residues; d marks the D form. Peptide text beside a SMILES is read from it. Cit = NC(=O)NCCC[C@H](N)C(=O)O

Experiments:
HLA-DRB1*01:01 = target: T1, HLA-DRB1*01:01 (Homo sapiens, UniProt P01903+P01911, A100R/D57E/F55L/F60I/F76Y/I96L/L162R/M171V/P40L/Q125E/R42F/V115G/Y59C); experiment: HLA class II peptide binding, inhibition of radiolabeled peptide binding to purified MHC; conditions: read-out: DRB1*01:01 binding capacity, Cit peptide (IC50 nM)
T1 construct: EBV transformed homozygous cell lines were used as sources of MHC molecules; endogenous in cells; host or cells: EBV transformed homozygous cell lines

HLA-DRB1*04:01 = target: T2, HLA-DRB1*04:01 (Homo sapiens, UniProt P01903+P01911, A100K/A169T/F76Y/I96L/K127E/L162R/M171V/N62H/P40V/Q125Y/R42H/S133A/S149N/S66Y/V115G/V209L/W38E); experiment: as above; conditions: read-out: DRB1*04:01 binding capacity, Cit peptide (IC50 nM)
T2 construct: EBV transformed homozygous cell lines were used as sources of MHC molecules; endogenous in cells; host or cells: EBV transformed homozygous cell lines

[1] = citrullinated 15-mer (X), purified MHC, inhibition of radiolabeled peptide binding, dash = IC50 >40,000 nM

Row | IC50 (HLA-DRB1*01:01; [1]) [nM] | IC50 (HLA-DRB1*04:01; [1]) [nM] | IC50 (HLA-DRB1*01:01; citrullinated 15-mer peptide (X = citrulline), purified HLA-DRB1*01:01) [nM] | IC50 (HLA-DRB1*04:01; citrullinated 15-mer peptide (X = citrulline), purified HLA-DRB1*04:01) [nM] | SMILES
1 | 983 | > 40000 | – | – | CC[C@H](C)[C@H](NC(=O)[C@@H](N)CC(=O)O)C(=O)N[C@@H](CCSC)C(=O)N[C@@H](CCCNC(N)=O)C(=O)N[C@@H](CC(C)C)C(=O)N[C@@H](CCCNC(=N)N)C(=O)N[C@@H](CCC(=O)O)C(=O)N[C@@H](CCCCN)C(=O)N[C@@H](CC(C)C)C(=O)N[C@@H](CCC(N)=O)C(=O)N[C@@H](CCC(=O)O)C(=O)N[C@@H](CCC(=O)O)C(=O)N[C@@H](CCSC)C(=O)N[C@@H](CC(C)C)C(=O)N[C@@H](CCC(N)=O)C(=O)O [DIMXLREKLQEEMLQ] (H-DIM[Cit]LREKLQEEMLQ-OH)
2 | 10900 | > 40000 | – | – | CC(C)C[C@H](NC(=O)[C@H](CO)NC(=O)[C@H](C)NC(=O)[C@H](CC(N)=O)NC(=O)[C@@H](N)CC(=O)O)C(=O)N[C@@H](C)C(=O)N[C@@H](CCCNC(=N)N)C(=O)N[C@@H](CC(C)C)C(=O)N[C@@H](CC(=O)O)C(=O)N[C@@H](CC(C)C)C(=O)N[C@@H](CCC(=O)O)C(=O)N[C@@H](CCCNC(N)=O)C(=O)N[C@@H](CCCCN)C(=O)N[C@H](C(=O)N[C@@H](CCC(=O)O)C(=O)O)C(C)C [DNASLARLDLEXKVE] (H-DNASLARLDLE[Cit]KVE-OH)
3 | 16300 | > 40000 | – | – | CC(C)C[C@H](NC(=O)[C@H](CO)NC(=O)[C@H](C)NC(=O)[C@H](CC(N)=O)NC(=O)[C@@H](N)CC(=O)O)C(=O)N[C@@H](C)C(=O)N[C@@H](CCCNC(N)=O)C(=O)N[C@@H](CC(C)C)C(=O)N[C@@H](CC(=O)O)C(=O)N[C@@H](CC(C)C)C(=O)N[C@@H](CCC(=O)O)C(=O)N[C@@H](CCCNC(=N)N)C(=O)N[C@@H](CCCCN)C(=O)N[C@H](C(=O)N[C@@H](CCC(=O)O)C(=O)O)C(C)C [DNASLAXLDLERKVE] (H-DNASLA[Cit]LDLERKVE-OH)
4 | 1610 | > 40000 | – | – | CC[C@H](C)[C@H](NC(=O)[C@H](CC(=O)O)NC(=O)[C@H](CCC(=O)O)NC(=O)[C@H](C)NC(=O)[C@H](CC(C)C)NC(=O)[C@H](CC(N)=O)NC(=O)[C@@H](N)CC(=O)O)C(=O)N[C@@H](CCSC)C(=O)N[C@@H](CCCNC(=N)N)C(=O)N[C@@H](CC(C)C)C(=O)N[C@@H](CCCNC(N)=O)C(=O)N[C@@H](CCC(=O)O)C(=O)N[C@@H](CCCCN)C(=O)N[C@@H](CC(C)C)C(=O)N[C@@H](CCC(N)=O)C(=O)O [DNLAEDIMRLXEKLQ] (H-DNLAEDIMRL[Cit]EKLQ-OH)
5 | 4690 | > 40000 | – | – | CC[C@H](C)[C@H](NC(=O)[C@H](CC(=O)O)NC(=O)[C@H](CCC(=O)O)NC(=O)[C@H](C)NC(=O)[C@H](CC(C)C)NC(=O)[C@H](CC(N)=O)NC(=O)[C@@H](N)CC(=O)O)C(=O)N[C@@H](CCSC)C(=O)N[C@@H](CCCNC(N)=O)C(=O)N[C@@H](CC(C)C)C(=O)N[C@@H](CCCNC(=N)N)C(=O)N[C@@H](CCC(=O)O)C(=O)N[C@@H](CCCCN)C(=O)N[C@@H](CC(C)C)C(=O)N[C@@H](CCC(N)=O)C(=O)O [DNLAEDIMXLREKLQ] (H-DNLAEDIM[Cit]LREKLQ-OH)
6 | 19 | 7760 | – | – | CC(C)C[C@H](NC(=O)[C@H](CC(N)=O)NC(=O)[C@H](CCCCN)NC(=O)[C@H](C)NC(=O)[C@H](C)NC(=O)[C@@H](NC(=O)[C@H](CO)NC(=O)[C@H](CCC(=O)O)NC(=O)[C@H](Cc1ccc(O)cc1)NC(=O)[C@H](CCC(N)=O)NC(=O)[C@H](CCC(N)=O)NC(=O)[C@H](CCCNC(N)=O)NC(=O)[C@@H](NC(=O)[C@@H](N)CC(=O)O)C(C)C)C(C)C)C(=O)N[C@@H](CCC(N)=O)C(=O)O [DVXQQYESVAAKNLQ] (H-DV[Cit]QQYESVAAKNLQ-OH)
7 | – | – | 2270 | 33300 | CC(C)[C@H](NC(=O)[C@H](CC(=O)O)NC(=O)CNC(=O)[C@H](CCCNC(N)=O)NC(=O)[C@@H](N)CC(=O)O)C(=O)NCC(=O)N[C@@H](CCC(=O)O)C(=O)N[C@@H](CCCCN)C(=O)NCC(=O)N1CCC[C@H]1C(=O)N[C@@H](CCC(=O)O)C(=O)NCC(=O)N[C@@H](C)C(=O)N1CCC[C@H]1C(=O)NCC(=O)O [DXGDVGEKGPEGAPG] (H-D[Cit]GDVGEKGPEGAPG-OH)
8 | 686 | 1280 | – | – | CSCC[C@H](NC(=O)[C@H](CCC(=O)O)NC(=O)[C@H](CCC(=O)O)NC(=O)[C@@H](N)CCC(=O)O)C(=O)N[C@@H](CCCNC(=N)N)C(=O)N[C@@H](CCC(=O)O)C(=O)N[C@@H](CC(C)C)C(=O)N[C@@H](CCCNC(=N)N)C(=O)N[C@@H](CCCNC(N)=O)C(=O)N[C@@H](CCC(N)=O)C(=O)N[C@H](C(=O)N[C@@H](CC(=O)O)C(=O)N[C@@H](CCC(N)=O)C(=O)N[C@@H](CC(C)C)C(=O)N[C@H](C(=O)O)[C@@H](C)O)C(C)C [EEEMRELRXQVDQLT] (H-EEEMRELR[Cit]QVDQLT-OH)
